Results published in paper PMC5517430, “2,3,7,8-Tetrachlorodibenzo-p-dioxin (TCDD)-elicited effects on bile acid homeostasis: Alterations in biosynthesis, enterohepatic circulation, and microbial metabolism” (Scientific Reports, 2017).

Test system: hepatic gene expression
Assay: Hepatic RNA-Seq differential gene expression (fold change, P1(t), ED50, BMD, BMDL)
Type: in vivo, mouse
Procedure: Frozen ileal epithelium scrapings and liver samples were homogenized in TRIzol (Ambion, Waltham, MA) using a Mixer Mill 300 tissue homogenizer (Retsch, Germany) and total RNA was isolated as previously described. RNA was quantified using a Nano-drop spectrophotometer (Thermo Scientific, Wilmington, DE) at 260 nm, and purity was assessed using the A260/A280 ratio and the Caliper LabChip GX (Perkin Elmer, Waltham, MA).
Dose-dependent gene expression was examined using RNA-Seq performed at the MSU Research Technology Support Facility (RTSF) Genomics Core (rtsf.natsci.msu.edu/genomics). Ileal libraries from three independent biological replicates (n = 3) were prepared using the Ovation Mouse RNA-Seq System 1–16 sample preparation kit (NuGen, San Carlos, CA), with an additional DNase step. Libraries were quantified and sequenced as previously described, using a read depth of ~30 M per sample[33], [67]. Quality was determined using FASTQC v0.11.3 and adaptor sequences were removed using Trimmomatic v0.33. Reads were mapped to the mouse reference genome (GRCm38 release 81) using Bowtie2 v2.2.6 and TopHat2 v2.1.0. Alignments were converted to SAM format using SAMTools v1.2.0. For TCDD-mediated differential gene expression, fold changes were calculated relative to vehicle controls. Hepatic RNA-Seq analysis was previously published. Genes were considered differentially expressed if |fold change| ≥ 1.5 and statistical P1(t) value ≥ 0.8 at one or more doses. RNA-Seq datasets for the ileal epithelium and liver were deposited in the Gene Expression Omnibus (GEO; accession number GSE89430 and GSE87519, respectively). The RNA-Seq results (fold changes, P1(t) values) for each gene discussed in the manuscript have been compiled in Supplementary Table S1. […] Estimation of benchmark dose (BMD) and BMD lower confidence limit (BMDL) was performed using BMDExpress[69] as previously described, and has been included in Supplementary Table S1.

[1] = liver, 0.01 µg/kg TCDD, relative to vehicle control
[2] = liver, 0.03 µg/kg TCDD, relative to vehicle control
[3] = liver, 0.1 µg/kg TCDD, relative to vehicle control
[4] = liver, 0.3 µg/kg TCDD, relative to vehicle control
[5] = liver, 1 µg/kg TCDD, relative to vehicle control
[6] = liver, 3 µg/kg TCDD, relative to vehicle control
[7] = liver, 10 µg/kg TCDD, relative to vehicle control
[8] = liver, 30 µg/kg TCDD, relative to vehicle control
[9] = male mice, 30 µg/kg TCDD every 4 d for 28 d
[10] = male mice, TCDD every 4 d for 28 d

## Clc1cc2c(cc1Cl)Oc1cc(Cl)c(Cl)cc1O2 [TCDD, 2,3,7,8-tetrachlorodibenzo-p-dioxin]
liver
  Slc6a6 (TAUT) BMD: 11.24 µg/kg TCDD
  Slc6a6 (TAUT) BMDL: 8.25 µg/kg TCDD
  Slc6a6 (TAUT) Differentially Expressed?: YES
  Slc6a6 (TAUT) ED50: 13.27 µg/kg TCDD
  Slc10a1 (NTCP or LBAT) BMD: 9.13 µg/kg TCDD
  Slc10a1 (NTCP or LBAT) BMDL: 4.73 µg/kg TCDD
  Slc10a1 (NTCP or LBAT) Differentially Expressed?: YES
  Slc10a1 (NTCP or LBAT) ED50: 14.43 µg/kg TCDD
  Slc27a5 BMD: 4.42 µg/kg TCDD
  Slc27a5 BMDL: 3.04 µg/kg TCDD
  Slc27a5 Differentially Expressed?: YES
  Slc27a5 ED50: 11.65 µg/kg TCDD
  Slco1a1 (OATP1A1) BMD: 8.64 µg/kg TCDD
  Slco1a1 (OATP1A1) BMDL: 3.68 µg/kg TCDD
  Slco1a1 (OATP1A1) Differentially Expressed?: YES
  Slco1a1 (OATP1A1) ED50: 10.06 µg/kg TCDD
  Slco1a4 (OATP1A4) BMD: 0.56 µg/kg TCDD
  Slco1a4 (OATP1A4) BMDL: 0.000105 µg/kg TCDD
  Slco1a4 (OATP1A4) Differentially Expressed?: YES
  Slco1a4 (OATP1A4) ED50: Not sigmoidal
  Slco1b2 (OATP1B2) BMD: 6.99 µg/kg TCDD
  Slco1b2 (OATP1B2) BMDL: 4.27 µg/kg TCDD
  Slco1b2 (OATP1B2) Differentially Expressed?: YES
  Slco1b2 (OATP1B2) ED50: 12.87 µg/kg TCDD
  Slco2b1 (OATP2B1) BMD: 4.52 µg/kg TCDD
  Slco2b1 (OATP2B1) BMDL: 2.69 µg/kg TCDD
  Slco2b1 (OATP2B1) Differentially Expressed?: YES
  Slco2b1 (OATP2B1) ED50: 11.16 µg/kg TCDD
  Soat1 BMD: No model fit
  Soat1 BMDL: No model fit
  Soat1 Differentially Expressed?: YES
  Soat1 ED50: 8.88 µg/kg TCDD
  Soat2 BMD: 7.18 µg/kg TCDD
  Soat2 BMDL: 5.55 µg/kg TCDD
  Soat2 Differentially Expressed?: YES
  Soat2 ED50: Not sigmoidal
  Sqle BMD: No model fit
  Sqle BMDL: No model fit
  Sqle Differentially Expressed?: YES
  Sqle ED50: 19.37 µg/kg TCDD
  Srebf2 BMD: 8.52 µg/kg TCDD
  Srebf2 BMDL: 4.75 µg/kg TCDD
  Srebf2 Differentially Expressed?: YES
  Srebf2 ED50: 15.74 µg/kg TCDD
  Sult2a8 BMD: 1.73 µg/kg TCDD
  Sult2a8 BMDL: 1.40 µg/kg TCDD
  Sult2a8 Differentially Expressed?: YES
  Sult2a8 ED50: 11.63 µg/kg TCDD
  Tm7sf2 BMD: 14.47 µg/kg TCDD
  Tm7sf2 BMDL: 11.85 µg/kg TCDD
  Tm7sf2 Differentially Expressed?: YES
  Tm7sf2 ED50: 17.41 µg/kg TCDD
[1]
  Slc6a6 (TAUT) FC_0.01: 0.98
  Slc10a1 (NTCP or LBAT) FC_0.01: 1.06
  Slc27a5 FC_0.01: 0.96
  Slco1a1 (OATP1A1) FC_0.01: 1.85
  Slco1a4 (OATP1A4) FC_0.01: 0.83
  Slco1b2 (OATP1B2) FC_0.01: 0.99
  Slco2b1 (OATP2B1) FC_0.01: 1.02
  Soat1 FC_0.01: 0.61
  Soat2 FC_0.01: 1.08
  Sqle FC_0.01: 1.57
  Srebf2 FC_0.01: 1.04
  Sult2a8 FC_0.01: 1.07
  Tm7sf2 FC_0.01: 1.06
[2]
  Slc6a6 (TAUT) FC_0.03: 0.99
  Slc10a1 (NTCP or LBAT) FC_0.03: 1.13
  Slc27a5 FC_0.03: 0.89
  Slco1a1 (OATP1A1) FC_0.03: 1.27
  Slco1a4 (OATP1A4) FC_0.03: 0.81
  Slco1b2 (OATP1B2) FC_0.03: 1.11
  Slco2b1 (OATP2B1) FC_0.03: 0.97
  Soat1 FC_0.03: 0.71
  Soat2 FC_0.03: 1.02
  Sqle FC_0.03: 1.40
  Srebf2 FC_0.03: 1.10
  Sult2a8 FC_0.03: 1.00
  Tm7sf2 FC_0.03: 0.92
[3]
  Slc6a6 (TAUT) FC_0.1: 1.04
  Slc10a1 (NTCP or LBAT) FC_0.1: 0.87
  Slc27a5 FC_0.1: 0.83
  Slco1a1 (OATP1A1) FC_0.1: 0.82
  Slco1a4 (OATP1A4) FC_0.1: 0.42
  Slco1b2 (OATP1B2) FC_0.1: 1.02
  Slco2b1 (OATP2B1) FC_0.1: 0.91
  Soat1 FC_0.1: 1.03
  Soat2 FC_0.1: 1.01
  Sqle FC_0.1: 1.57
  Srebf2 FC_0.1: 1.00
  Sult2a8 FC_0.1: 0.89
  Tm7sf2 FC_0.1: 0.82
[4]
  Slc6a6 (TAUT) FC_0.3: 1.15
  Slc10a1 (NTCP or LBAT) FC_0.3: 1.02
  Slc27a5 FC_0.3: 0.88
  Slco1a1 (OATP1A1) FC_0.3: 1.03
  Slco1a4 (OATP1A4) FC_0.3: 0.87
  Slco1b2 (OATP1B2) FC_0.3: 1.08
  Slco2b1 (OATP2B1) FC_0.3: 0.92
  Soat1 FC_0.3: 0.85
  Soat2 FC_0.3: 1.22
  Sqle FC_0.3: 2.08
  Srebf2 FC_0.3: 1.06
  Sult2a8 FC_0.3: 0.81
  Tm7sf2 FC_0.3: 1.05
[5]
  Slc6a6 (TAUT) FC_1: 1.28
  Slc10a1 (NTCP or LBAT) FC_1: 1.21
  Slc27a5 FC_1: 0.86
  Slco1a1 (OATP1A1) FC_1: 1.33
  Slco1a4 (OATP1A4) FC_1: 0.45
  Slco1b2 (OATP1B2) FC_1: 1.13
  Slco2b1 (OATP2B1) FC_1: 1.01
  Soat1 FC_1: 0.53
  Soat2 FC_1: 1.23
  Sqle FC_1: 1.92
  Srebf2 FC_1: 0.99
  Sult2a8 FC_1: 0.89
  Tm7sf2 FC_1: 0.89
[6]
  Slc6a6 (TAUT) FC_3: 1.14
  Slc10a1 (NTCP or LBAT) FC_3: 1.09
  Slc27a5 FC_3: 0.81
  Slco1a1 (OATP1A1) FC_3: 1.24
  Slco1a4 (OATP1A4) FC_3: 0.40
  Slco1b2 (OATP1B2) FC_3: 0.92
  Slco2b1 (OATP2B1) FC_3: 0.90
  Soat1 FC_3: 0.77
  Soat2 FC_3: 1.08
  Sqle FC_3: 1.74
  Srebf2 FC_3: 0.93
  Sult2a8 FC_3: 0.65
  Tm7sf2 FC_3: 1.24
[7]
  Slc6a6 (TAUT) FC_10: 1.16
  Slc10a1 (NTCP or LBAT) FC_10: 0.56
  Slc27a5 FC_10: 0.48
  Slco1a1 (OATP1A1) FC_10: 0.0276
  Slco1a4 (OATP1A4) FC_10: 0.46
  Slco1b2 (OATP1B2) FC_10: 0.65
  Slco2b1 (OATP2B1) FC_10: 0.40
  Soat1 FC_10: 1.16
  Soat2 FC_10: 0.80
  Sqle FC_10: 2.07
  Srebf2 FC_10: 0.85
  Sult2a8 FC_10: 0.12
  Tm7sf2 FC_10: 0.97
[8]
  Slc6a6 (TAUT) FC_30: 1.84
  Slc10a1 (NTCP or LBAT) FC_30: 0.056
  Slc27a5 FC_30: 0.06
  Slco1a1 (OATP1A1) FC_30: 0.000843
  Slco1a4 (OATP1A4) FC_30: 0.40
  Slco1b2 (OATP1B2) FC_30: 0.13
  Slco2b1 (OATP2B1) FC_30: 0.08
  Soat1 FC_30: 3.59
  Soat2 FC_30: 0.51
  Sqle FC_30: 0.23
  Srebf2 FC_30: 0.37
  Sult2a8 FC_30: 0.00374
  Tm7sf2 FC_30: 0.0549
[9]
  Fgfr4 hepatic expression, fold repression: 4.7 fold
  Hmgcr hepatic expression: no significant induction
  Klb hepatic expression, fold repression: 8.1 fold
  Srebf2 hepatic expression, fold repression: 2.7 fold
Male mice, 0.3–10 µg/kg TCDD every 4 d for 28 d
  Hmgcr hepatic expression, max fold induction: 3.4 fold
[10]
  Abcb11 hepatic expression, fold repression: 4.7 fold
  Abcc2 hepatic expression: unchanged
  Akr1c6 hepatic expression, fold repression: 22.1 fold
  Akr1d1 hepatic expression, fold repression: 16.3 fold
  Amacr hepatic expression, fold repression: 3.3 fold
  Baat hepatic expression, fold repression: 12.0 fold
  Cdo1 hepatic expression, fold repression: 2.7 fold
  Ch25h hepatic expression, fold induction: 6.1 fold
  Csad hepatic expression, fold repression: 4.5 fold
  Cyp3a11 hepatic expression, fold repression: 4.9 fold
  Cyp3a13 hepatic expression, fold repression: 17.0 fold
  Cyp3a16 hepatic expression, fold repression: 5.2 fold
  Cyp3a25 hepatic expression, fold repression: 6.0 fold
  Cyp3a44 hepatic expression, fold repression: 3.0 fold
  Cyp3a57 hepatic expression, fold repression: 2.4 fold
  Cyp3a59 hepatic expression, fold repression: 4.4 fold
  Cyp7a1 hepatic expression, fold repression: 39.7 fold
  Cyp7b1 hepatic expression, fold repression: 7.6 fold
  Cyp8b1 hepatic expression, fold repression: 4.4 fold
  Cyp27a1 hepatic expression, fold repression: 2.4 fold
  Cyp46a1 hepatic expression, fold repression: 2.1 fold
  Hsd3b7 hepatic expression, fold repression: 2.5 fold
  Nr0b2 hepatic expression, fold repression: 22.2 fold
  Nr1h4 hepatic expression, fold repression: 3.2 fold
  Scp2 hepatic expression, fold repression: 3.4 fold
  Slc10a1 hepatic expression, fold repression: 17.9 fold
  Slc27a5 hepatic expression, fold repression: 16.0 fold
  Slco1a1 hepatic expression, fold repression: 1186.3 fold
  Slco1a4 hepatic expression, fold repression: 2.5 fold
  Slco1b2 hepatic expression, fold repression: 7.9 fold
  Slco2b1 hepatic expression, fold repression: 12.9 fold
  Sult2a8 hepatic expression, fold repression: 267.5 fold
